The text below walks through data of US7713971B2, “1,2,4-triazine derivatives, preparation and use thereof in human therapy” (Pierre Fabre Medicament, priority 2005, dated 2010).

One test addresses T1, human PPARγ (Homo sapiens, UniProt P37231).
T1 construct: expressed in transfected cells; host or cells: Cos-7 cells (ATCC, CRL-1651)
T1 sequence (P37231 238-503 limits assumed): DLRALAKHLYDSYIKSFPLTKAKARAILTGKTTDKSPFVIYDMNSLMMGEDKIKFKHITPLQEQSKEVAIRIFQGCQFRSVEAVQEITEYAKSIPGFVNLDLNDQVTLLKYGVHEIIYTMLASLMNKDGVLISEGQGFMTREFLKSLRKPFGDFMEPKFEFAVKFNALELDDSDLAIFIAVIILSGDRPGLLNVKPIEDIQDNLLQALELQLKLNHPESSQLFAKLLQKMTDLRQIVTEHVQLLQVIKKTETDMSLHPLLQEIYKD
The test can be described thus: Reporter gene transactivation, hPPAR-GAL4 gamma. It is filed as cell-based. Particulars: transfected Cos-7 cells, Gal-4 luciferase reporter, 24 hours treatment. A general note: In a reporter assay the amount or activity of a reporter protein is the signal.

For the next test, the target named is T2, human PPARα (Homo sapiens, UniProt Q07869).
T2 construct: expressed in transfected cells; host or cells: Cos-7 cells (ATCC, CRL-1651)
T2 sequence (Q07869 239-466 limits assumed): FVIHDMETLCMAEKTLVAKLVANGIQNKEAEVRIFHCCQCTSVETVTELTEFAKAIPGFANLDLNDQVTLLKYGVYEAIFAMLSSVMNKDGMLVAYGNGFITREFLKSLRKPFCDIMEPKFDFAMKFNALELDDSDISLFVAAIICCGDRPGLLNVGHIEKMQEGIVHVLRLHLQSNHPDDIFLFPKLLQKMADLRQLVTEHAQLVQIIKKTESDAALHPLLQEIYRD
The test can be described thus: Reporter gene transactivation, hPPAR-GAL4 alpha. It counts as cell-based. The note with it: transfected Cos-7 cells, Gal-4 luciferase reporter, 24 hours treatment.

Another test deals with T3, human PPARδ (Homo sapiens, UniProt Q03181).
T3 construct: expressed in transfected cells; host or cells: Cos-7 cells (ATCC, CRL-1651)
T3 sequence (Q03181 211-439 limits assumed): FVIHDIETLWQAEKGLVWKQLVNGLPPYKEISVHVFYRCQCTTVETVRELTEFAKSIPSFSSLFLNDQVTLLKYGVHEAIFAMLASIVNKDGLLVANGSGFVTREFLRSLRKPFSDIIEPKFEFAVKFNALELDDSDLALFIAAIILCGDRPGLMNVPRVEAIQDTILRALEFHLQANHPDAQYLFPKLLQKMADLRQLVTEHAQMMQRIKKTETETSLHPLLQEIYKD
The test can be described thus: Reporter gene transactivation, hPPAR-GAL4 delta. It counts as cell-based. Particulars: transfected Cos-7 cells, Gal-4 luciferase reporter, 24 hours treatment.

Test [1] deals with insulin-resistant male rat (Ico: ZUCKER-fa/fa). Description: Normalization of metabolic parameters (cholesterol, plasma triglycerides) in insulin-resistant rat. It counts as in vivo. Particulars: oral route, once per day for four days, Zucker fa/fa rat unfed 16-18 hours; for change in vivo at 10 mg/kg / change in vivo at 2.5 mg/kg: 96 h. As for the experimental part: Normalization of metabolic parameters (cholesterol, plasma triglycerides) in an insulin-resistant male rat (Ico: ZUCKER-fa/fa), unfed for 16-18 hours, after treatment by oral route, once per day for four days, with the compounds to be evaluated or their administration vehicle.
These metabolic parameters are measured by spectrophotometry at the beginning and the end of each animal's treatment.

Where [2] appears, read: at 10 mg/kg, read-out: Plasma cholesterol.
The mark [3] stands for this setting: at 2.5 mg/kg, read-out: Plasma cholesterol.
The mark [4] stands for this setting: at 10 mg/kg, read-out: Plasma triglycerides.

Where two headings read alike, the source gives them in different places.

For `CCOC(=O)C(C)(C)Oc1ccc(OCCNc2nn(CCCC(F)(F)F)c(=O)n(CCCC(F)(F)F)c2=O)cc1` [Example 41, Ethyl 2-(4-{2-[3,5-dioxo-2,4-bis-(4,4,4-trifluoro-butyl)-2,3,4,5-tetrahydro-[1,2,4]triazin-6-ylamino]-ethoxy}-phenoxy)-2-methyl-propionate], the concentration giving a half-maximal response (EC50) (commonly the concentration needed to bring the measured effect to its halfway point) is around 10000 nM at human PPARγ, around 100 nM on human PPARα and 1000 to 3000 nM on human PPARδ. Also, the change in vivo at 10 mg/kg in test [1] (setting [2]) was -28%. The Plasma triglycerides result in test [1] (at 10 mg/kg) is “inactive at 10”.

As to `CCOC(=O)C(C)(C)Oc1cccc(CCCNc2nn(CCCC(F)(F)F)c(=O)n(CCCC(F)(F)F)c2=O)c1` [Example 66, Ethyl 2-(3-{3-[3,5-dioxo-2,4-bis-(4,4,4-trifluoro-butyl)-2,3,4,5-tetrahydro-[1,2,4]triazin-6-ylamino]-propyl}-phenoxy)-2-methyl-propionate], the EC50 on human PPARγ is above 10000 nM; on human PPARα, 30 to 100 nM; at human PPARδ, around 10000 nM. Besides, in test [1] (setting [2]), the change in vivo at 10 mg/kg was -9%. Also, the Plasma triglycerides entry in test [1] (at 10 mg/kg) is “inactive at 10”.

`CCOC(=O)C(C)(C)Oc1cccc(CCCCNc2nn(CCCC(F)(F)F)c(=O)n(CC=C(C)C)c2=O)c1` [Example 76, Ethyl 2-methyl-2-(3-{4-[4-(3-methyl-but-2-enyl)-3,5-dioxo-2-(4,4,4-trifluoro-butyl)-2,3,4,5-tetrahydro-[1,2,4]triazin-6-ylamino]-butyl}-phenoxy)-propionate]: the EC50 was in the range of 1000 to 3000 nM on human PPARγ, 10 to 30 nM on human PPARα and 3000 to 10000 nM at human PPARδ. Also, the change in vivo at 2.5 mg/kg in test [1] (setting [3]) is -16%. Moreover, the change in vivo at 10 mg/kg in test [1] (setting [2]) was -22%; in test [1] (setting [4]) it was -7%.

In the case of `CCOC(=O)C(C)(C)Oc1cccc(CCCCNc2nn(CCCC(F)(F)F)c(=O)n(CCCC(F)(F)F)c2=O)c1` [Example 80, Ethyl 2-(3-{4-[3,5-dioxo-2,4-bis-(4,4,4-trifluoro-butyl)-2,3,4,5-tetrahydro-[1,2,4]triazin-6-ylamino]-butyl}-phenoxy)-2-methyl-propionate], the EC50 was 300 to 1000 nM at human PPARγ, 10 to 30 nM at human PPARα and above 10000 nM on human PPARδ. Besides, the change in vivo at 10 mg/kg in test [1] (setting [2]) is -16%. Besides, the Plasma triglycerides entry in test [1] (at 10 mg/kg) is “inactive at 10”.

With `CCCCCCCn1nc(NCCCCc2cccc(OC(C)(C)C(=O)O)c2)c(=O)n(CCCC(F)(F)F)c1=O` [Example 84, 2-(3-{4-[2-Heptyl-3,5-dioxo-4-(4,4,4-trifluoro-butyl)-2,3,4,5-tetrahydro-[1,2,4]triazin-6-ylamino]-butyl}-phenoxy)-2-methyl-propionic Acid], the results for the EC50 at human PPARγ, on human PPARα and on human PPARδ were around 300 nM, 3 to 10 nM and 1000 to 3000 nM, respectively. The change in vivo at 10 mg/kg in test [1] (setting [2]) was -13%; in test [1] (setting [4]) it was -7%. Besides, in test [1] (at 2.5 mg/kg), the Plasma cholesterol result was “inactive at 2.5”. Also, the Plasma triglycerides result in test [1] (at 2.5 mg/kg) was “inactive at 2.5”.

Regarding `Cn1nc(NCCCCc2cccc(SC(C)(C)C(=O)O)c2)c(=O)n(CCCC(F)(F)F)c1=O` [Example 96, 2-Methyl-2-(3-{4-[2-methyl-3,5-dioxo-4-(4,4,4-trifluoro-butyl)-2,3,4,5-tetrahydro-[1,2,4]triazin-6-ylamino]-butyl}-phenylsulfanyl)-propionic Acid], the EC50 at human PPARγ is around 10000 nM; on human PPARα, 30 to 100 nM; at human PPARδ it was above 10000 nM. Moreover, the change in vivo at 2.5 mg/kg in test [1] (setting [3]) was -28%; in test [1] (at 2.5 mg/kg, read-out: Plasma triglycerides) it was -26%. Further, the change in vivo at 10 mg/kg in test [1] (setting [2]) is -21%; in test [1] (setting [4]), -60%.

For `CCCCCCCN(CCc1ccc(OC(C)(C)C(=O)OCC)cc1)c1nn(C)c(=O)n(C)c1=O` [Example 112, Ethyl 2-(4-{2-[(2,4-dimethyl-3,5-dioxo-2,3,4,5-tetrahydro-[1,2,4]triazin-6-yl)-heptyl-amino]-ethyl}-phenoxy)-2-methyl-propionate], the EC50 on human PPARγ is around 10000 nM; on human PPARα, 1000 to 3000 nM; on human PPARδ it was 1000 to 3000 nM. The change in vivo at 10 mg/kg is -43% in test [1] (setting [2]) and -31% in test [1] (setting [4]).

Consider `CCCCCCCN(CCc1ccc(OC(C)(C)C(=O)O)cc1)c1nn(C)c(=O)n(C)c1=O` [Example 113, 2-(4-{2-[(2,4-Dimethyl-3,5-dioxo-2,3,4,5-tetrahydro-[1,2,4]triazin-6-yl)-heptyl-amino]-ethyl}-phenoxy)-2-methyl-propionic Acid], for which the values for the EC50 at human PPARγ, on human PPARα and at human PPARδ were 3000 to 10000 nM, 300 to 1000 nM and 300 to 1000 nM, respectively. In test [1] (setting [3]), the change in vivo at 2.5 mg/kg was -30%. Further, the change in vivo at 10 mg/kg was -40% in test [1] (setting [2]) and -26% in test [1] (setting [4]). The Plasma triglycerides entry in test [1] (at 2.5 mg/kg) is “inactive at 2.5”.
